Assay results taken from ChEMBL document CHEMBL4382228, “Small molecules as inhibitors of PCSK9: Current status and future challenges” (Eur J Med Chem, 2019).
pEC50, pIC50, pKd: −log10 of the molar value.

Experiments:
HepG2 [1] = assay: Inhibition of PCSK9 mRNA expression in human HepG2 cells at 20 uM after 24 hrs by qRT-PCR analysis relative to control; format: functional; settings: HepG2, 24 h
HepG2 [2] = assay: Inhibition of PCSK9 mRNA expression in human HepG2 cells after 24 hrs by SYBR Green I dye-based qRT-PCR analysis; format: functional, cell-based; settings: HepG2, 24 h
[3] = target: T1, Proprotein convertase subtilisin/kexin type 9 (Homo sapiens, UniProt Q8NBP7); assay: Binding affinity to PCSK9 (unknown origin) by SPR assay
T1 sequence (Q8NBP7 31-152 limits assumed): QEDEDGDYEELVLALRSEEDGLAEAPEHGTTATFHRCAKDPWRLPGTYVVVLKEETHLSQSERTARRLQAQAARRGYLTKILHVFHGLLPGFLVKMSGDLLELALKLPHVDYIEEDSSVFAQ
T1 sequence (Q8NBP7 153-692 limits assumed): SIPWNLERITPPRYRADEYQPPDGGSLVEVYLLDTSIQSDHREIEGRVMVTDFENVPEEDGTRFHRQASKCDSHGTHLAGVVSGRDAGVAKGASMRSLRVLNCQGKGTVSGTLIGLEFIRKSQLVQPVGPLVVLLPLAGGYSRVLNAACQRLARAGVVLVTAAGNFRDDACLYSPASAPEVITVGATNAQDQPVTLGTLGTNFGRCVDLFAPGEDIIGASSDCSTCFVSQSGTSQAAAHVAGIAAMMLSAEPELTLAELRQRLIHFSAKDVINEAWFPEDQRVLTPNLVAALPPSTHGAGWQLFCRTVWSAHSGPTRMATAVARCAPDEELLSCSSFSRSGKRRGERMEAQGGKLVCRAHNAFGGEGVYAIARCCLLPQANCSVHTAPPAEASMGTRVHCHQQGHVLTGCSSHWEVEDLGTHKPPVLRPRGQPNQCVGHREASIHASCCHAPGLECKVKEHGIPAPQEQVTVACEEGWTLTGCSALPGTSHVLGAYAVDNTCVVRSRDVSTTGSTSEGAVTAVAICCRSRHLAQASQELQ

HepG2 [4] = assay: Inhibition of PCSK9 mRNA expression in human HepG2 cells by SYBR Green I dye-based qRT-PCR analysis; format: functional, cell-based
Mus musculus = assay: Decrease in cholesterol level in C57BL/6 mouse fed with high fat diet at 10 mg/kg, po administered daily for 5 days relative to control; format: functional; set-up: scale not given: the % may be the effect or the level left
HepG2 [5] = assay: Inhibition of PCSK9 mRNA expression in human HepG2 cells after 24 hrs by qRT-PCR analysis; format: functional, cell-based; settings: HepG2, 24 h
[6] = target: T1, Proprotein convertase subtilisin/kexin type 9; assay: Inhibition of wild type His-tagged PCSK9 (unknown origin) binding to recombinant LDLR-AB domain (unknown origin) after 2 hrs by fluorescence assay
[7] = target: T1, Proprotein convertase subtilisin/kexin type 9; assay: Inhibition of PCSK9 in human HepG2 cells assessed as increase in LDL uptake after 24 hrs by fluorescence assay; format: cell-based
Hepatocyte [8] = assay: Inhibition of PCSK9 mRNA expression in mouse primary hepatocytes at 2.5 uM after 24 hrs relative to control; format: functional
Huh-7 [9] = assay: Inhibition of PCSK9 mRNA expression in human HuH7 cells at 2 uM after 24 hrs by qRT-PCR assay relative to control; format: functional; settings: Huh-7, 24 h
Huh-7 [10] = assay: Increase in LDLR protein expression in human HuH7 cells at 2 uM after 24 hrs by immunoblotting assay relative to control; format: functional
Huh-7 [11] = assay: Increase in LDLR mRNA expression in human HuH7 cells at 2 uM after 24 hrs by qRT-PCR assay relative to control; format: functional
80S Ribosome = assay: Binding affinity to 80S ribosome in human HuH7 cells expressing human C-terminal V5/6-His-tagged PCSK9 assessed as inhibition of PCSK9 secretion after 16 to 24 hrs by AlphaLISA method; format: cell-based; settings: huh-7
Hepatocyte [12] = assay: Inhibition of PCSK9 mRNA expression in mouse primary hepatocytes at 2 uM after 24 hrs relative to control; format: functional
[13] = target: T1, Proprotein convertase subtilisin/kexin type 9; assay: Inhibition of human recombinant full length ProLabel-tagged PCSK9 expressed in CHO-K1 cells incubated overnight and measured after 3 days by chemiluminescence assay; format: cell-based
[14] = target: T1, Proprotein convertase subtilisin/kexin type 9; assay: Inhibition of human recombinant PCSK9 expressed in CHO-K1 cells assessed as alkaline phosphatase secretion incubated overnight and measured after 3 days by HTS assay; format: cell-based
[15] = target: T1, Proprotein convertase subtilisin/kexin type 9; assay: Inhibition of human recombinant full length ProLabel-tagged PCSK9 expressed in CHO-K1 cells incubated overnight and measured after 3 days by HTS assay; format: cell-based
CHO-K1 = assay: Cytotoxicity against CHOK1 cells expressing human recombinant full length ProLabel-tagged PCSK9 after overnight incubation by CellTiter blue assay; format: cell-based; settings: Cricetulus griseus

COc1cccc(O)c1-c1cc(=O)c2c(O)c(OC)c(OC)c(OC)c2o1 [SKULLCAPFLAVONE II]
inhibition at 20 µM (HepG2 [1]): 42.4%

COc1c2c(cc3c1-c1c(cc4c(c1OC)OCO4)C[C@H](C)[C@H](C)C3)OCO2 [SCHISANDRIN C]
pIC50 (HepG2 [2]): 5.41

CC(C)C[C@H](C(=O)N1CCN([C@@H](CC(N)=O)C(=O)N[C@@H](CCCNC(=N)N)C(=O)N[C@H]2CCOC2=O)CC1)N1C(=O)N[C@@H](CC(=O)O)C1=O
pKd [3]: 4.61

COc1cc2c(c(OC)c1OC)-c1c(cc3c(c1OC)OCO3)C[C@@H](C)[C@@](C)(O)C2
pIC50 (HepG2 [2]): 5.96

Nc1ncnc2c1ncn2[C@@H]1O[C@H](CO)[C@@H](O)[C@H]1O [ADENOSINE]
pIC50 (HepG2 [4]): 4.73

Cc1ccc(N2CCN(C(=O)c3ccc(NC(N)=O)cc3)C(c3ccccc3)C2)cc1Cl (configuration not stated)
Activity (Mus musculus): 20 - 38%

C/C=C(/C)C(=O)Oc1c2c(cc3c1-c1c(cc(OC)c(OC)c1OC)C[C@](C)(O)[C@@H](C)C3)OCO2
pIC50 (HepG2 [2]): 6.44

Cc1cc(C(=O)C2=C(O)C(=O)N(CCCN3CCOCC3)C2c2ccncc2)ccc1OCc1ccccc1 (configuration not stated)
Activity (Mus musculus): 20 - 38%

CCN(CC)C(=O)c1ccc(NC(=O)CSc2nnc(-c3cccs3)n2C2CC2)cc1
Activity (Mus musculus): 20 - 38%

CN1C(=O)c2cc(NC(=O)c3ccc(C(F)(F)F)cc3)ccc2OC[C@@H]2O[C@H](CC(=O)NC3Cc4ccccc4C3)CC[C@@H]21
pEC50 (HepG2 [5]): 6.44

COC(=O)c1c(C)cc(O[C@@H]2O[C@H](CO)[C@@H](O)[C@H]2O)c(OC)c1O
pIC50 (HepG2 [4]): 4.70

Cn1cccc1-c1ccc(-c2ccc(-c3ccc(-c4ccccc4)n3C)n2C)n1C
pIC50 [6]: 4.95 | pEC50 [7]: 5.22

CC(C)=CCc1c(O)cc(-c2cc3ccc(O)cc3o2)cc1O [MORACIN C]
pIC50 (HepG2 [2]): 4.77

CC(C)C[C@@H](C(=O)N[C@H](CCCCN)C(=O)N[C@H]1CCOC1=O)N1CCN(C(=O)[C@H](CS)N2C(=O)N[C@H](CC(N)=O)C2=O)CC1
pKd [3]: 4.39

COc1cc2c(cc1-c1c(C)noc1C)ncc1[nH]c(=O)n([C@H](C)c3ccccn3)c12
inhibition at 2.5 µM (Hepatocyte [8]): > 90%

O=c1c(O[C@@H]2O[C@H](CO)[C@@H](O)[C@H](O)[C@H]2O)c(-c2ccc(O)c(O)c2)oc2cc(O)cc(O)c12 [ISOQUERCETIN]
inhibition at 2 µM (Huh-7 [9]): 20 to 30% | Activity (Huh-7 [10]): 300 - 400% | Activity (Huh-7 [11]): 60%

O=C(Nc1ccc(-c2nc3ccccc3o2)cc1)c1ccc(NC(=O)c2cc3ccccc3o2)cc1
Activity (Mus musculus): 20 - 38%

O=C(c1ccc(-n2nnc3cccnc32)cc1)N(c1ncccc1Cl)[C@@H]1CCCNC1
pIC50 (80S Ribosome): 6.52

CC(C)C[C@H](C(=O)N1CCN([C@@H](CC#N)C(=O)N[C@@H](CCCNC(=N)N)C(=O)N[C@H]2CCOC2=O)CC1)N1C(=O)N[C@@H](CC(=O)O)C1=O
pKd [3]: 4.45

COc1cc2c(c(O)c1O)COC2=O
pIC50 (HepG2 [4]): 5.14

Cc1sc2c(c1C)C(c1ccccc1)=N[C@@H](CC(=O)OC(C)(C)C)c1nnc(C)n1-2
inhibition at 2 µM (Hepatocyte [12]): > 90%

CC(=O)Nc1ccc(C(=O)N2CCN(c3ccc(C)c(Cl)c3)CC2c2ccccc2)cc1 (configuration not stated)
Activity (Mus musculus): 20 - 38%

COc1ccc(CCC(=O)N(c2nccc3ccccc23)[C@@H]2CCCNC2)cc1
pIC50 [13]: > 5.00 | pIC50 [14]: < 5.00 | pIC50 [15]: 5.32 | pIC50 (CHO-K1): < 5.00

COc1cc(O)cc2c1C(=O)[C@H](O)[C@@H](c1ccccc1O)O2
inhibition at 20 µM (HepG2 [1]): 84.4%

CC(C)[C@@H](C)/C=C/[C@@H](C)[C@H]1CCC2=C3[C@@H](O)[C@@H]4O[C@@]45C[C@@H](O)CC[C@]5(C)[C@H]3CC[C@@]21C
pIC50 (HepG2 [4]): 5.08

COc1cc([C@@H]2O[C@H](c3cc(O)c(OC)c(OC)c3)[C@@H](C)[C@@H]2C)ccc1O
pIC50 (HepG2 [2]): 5.50
